# Source: ChEMBL document CHEMBL1138100 (Bioorg Med Chem Lett, 2006)
# Key:
# [1] = target: Inosine-5'-monophosphate dehydrogenase 2 (Homo sapiens, UniProt P12268); assay: Inhibition of human IMPDH2
# [2] = target: Inosine-5'-monophosphate dehydrogenase 1 (Homo sapiens, UniProt P20839); assay: Inhibition of human IMPDH1
# [3] = target: Inosine-5'-monophosphate dehydrogenase (IMPDH) (Homo sapiens) (UniProt P20839+P12268); assay: Selectivity for IMPDH1 over IMPDH2; assay type: protein assay
# Chain of Inosine-5'-monophosphate dehydrogenase (IMPDH) (Homo sapiens) (P20839 whole entry, looked up, other chains not shown): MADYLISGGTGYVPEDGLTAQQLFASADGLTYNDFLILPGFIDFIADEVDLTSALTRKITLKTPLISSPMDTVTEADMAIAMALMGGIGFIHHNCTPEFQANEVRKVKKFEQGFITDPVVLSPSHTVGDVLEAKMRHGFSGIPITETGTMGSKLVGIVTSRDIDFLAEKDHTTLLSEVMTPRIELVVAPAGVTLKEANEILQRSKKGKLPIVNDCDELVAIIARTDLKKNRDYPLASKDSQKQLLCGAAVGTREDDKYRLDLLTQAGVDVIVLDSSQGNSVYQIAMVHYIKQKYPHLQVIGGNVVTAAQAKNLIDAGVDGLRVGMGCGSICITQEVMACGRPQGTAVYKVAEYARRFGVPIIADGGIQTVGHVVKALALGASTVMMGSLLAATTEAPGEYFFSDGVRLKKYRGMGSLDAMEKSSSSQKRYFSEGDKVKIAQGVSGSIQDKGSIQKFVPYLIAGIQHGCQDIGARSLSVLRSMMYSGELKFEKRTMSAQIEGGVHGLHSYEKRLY
# Chain of Inosine-5'-monophosphate dehydrogenase 1 (P20839 whole entry): as the sequence (P20839 whole entry, looked up, other chains not shown) above
Structure (SMILES),IC50 [1] [µM],IC50 [2] [µM],Selectivity ratio [3]
COC/C(C)=C/Cc1c(O)c2c(c(C)c1OC)COC2=O,0.273,,
COc1c(C)c2c(c(O)c1C/C=C(\C)COCP(=O)(O)O)C(=O)OC2,0.246,,
COc1c(C)c2c(c(O)c1C/C=C(\C)CCCP(=O)(O)O)C(=O)OC2,0.086,,
COc1c(C)c2c(c(O)c1C/C=C(C)/C=C/P(=O)(O)O)C(=O)OC2,0.506,,
COc1c(C)c2c(c(O)c1C/C=C(\C)CP(=O)(O)O)C(=O)OC2,0.168,,
COc1c(C)c2c(c(O)c1C/C=C(\C)CCC(=O)O)C(=O)OC2 [MYCOPHENOLIC ACID],,0.032,
CCc1c(C)c2c(c(O)c1C/C=C(\C)CP(=O)(O)O)C(=O)OC2,0.02,0.071,3.6
COc1c(C)c2c(c(O)c1C/C=C(\C)CCP(=O)(O)O)C(=O)OC2,0.096,,
CCc1c(C)c2c(c(O)c1C/C=C(\C)CN(CCP(=O)(O)O)S(N)(=O)=O)C(=O)OC2,0.024,,
COc1c(C)c2c(c(O)c1C/C=C(\C)CN(CCP(=O)(O)O)S(C)(=O)=O)C(=O)OC2,0.498,,
CCc1c(C)c2c(c(O)c1C/C=C(\C)CN(CCP(=O)(O)O)S(C)(=O)=O)C(=O)OC2,0.068,,
COc1c(C)c2c(c(O)c1C/C=C(\C)CNCP(=O)(O)O)C(=O)OC2,> 1,,
COc1c(C)c2c(c(O)c1C/C=C(\C)CNCCP(=O)(O)O)C(=O)OC2,0.499,,
CCc1c(C)c2c(c(O)c1C/C=C(\C)CNCCP(=O)(O)O)C(=O)OC2,0.013,0.037,2.8
CCc1c(C)c2c(c(O)c1C/C=C(\C)CN(C)CCP(=O)(O)O)C(=O)OC2,0.132,,
CCc1c(C)c2c(c(O)c1C/C=C(\C)COCP(=O)(O)O)C(=O)OC2,0.023,0.038,1.7
COc1c(C)c2c(c(O)c1C/C=C(\C)CN(CCP(=O)(O)O)C(C)=O)C(=O)OC2,0.785,,
COc1c(C)c2c(c(O)c1C/C=C(\C)CN(C=O)CCP(=O)(O)O)C(=O)OC2,0.749,,
CCOP(=O)(CCNC/C(C)=C/Cc1c(O)c2c(c(C)c1OC)COC2=O)OCC,> 1,,
COc1c(C)c2c(c(O)c1CC=C(C)C)C(=O)OC2,0.254,,
COc1c(C)c2c(c(O)c1C/C=C(\C)CN(C)CCP(=O)(O)O)C(=O)OC2,> 1,,
COc1c(C)c2c(c(O)c1C/C=C(\C)CP(=O)(OC)OC)C(=O)OC2,0.289,,
COc1c(C)c2c(c(O)c1C/C=C(\C)CN(CCP(=O)(O)O)S(N)(=O)=O)C(=O)OC2,0.093,,
